Test results reported in ChEMBL document CHEMBL4765331, “Amides of pyrrole- and thiophene-fused anthraquinone derivatives: A role of the heterocyclic core in antitumor properties” (Eur J Med Chem, 2020).

Tests used:
[1] = Drug uptake in P-gp-positive/doxorubicin-resistant human K562/4 cells; assay type: ADME
HL-60 = assay: Antiproliferative activity against human HL-60 cells assessed as inhibition of cell proliferation measured after 72 hrs by MTT assay; assay type: functional, cell-based; conditions: HL-60, 72 h
HCT-116 [2] = assay: Antiproliferative activity against human HCT-116 cells with inactivated p53 gene assessed as inhibition of cell proliferation measured after 72 hrs by MTT assay; assay type: functional, cell-based; conditions: HCT-116, 72 h
Calf thymus DNA [3] = assay: Binding affinity to calf thymus DNA assessed as dissociation constant by scatchard plot analysis; set-up: species or system Bos taurus
HCT-116 [4] = assay: Antiproliferative activity against human HCT-116 cells assessed as inhibition of cell proliferation measured after 72 hrs by MTT assay; assay type: functional, cell-based; conditions: HCT-116, 72 h
[5] = Selectivity index, ratio of IC50 for human TERT-RPE1 cells to IC50 for human HL-60 cells; assay type: toxicity; conditions: TERT-RPE1 cells and HL-60 cells, read-out: Ratio IC50
P388 [6] = assay: Antitumour activity against mouse P388 cells xenografted subcutaneously in ip dosed BDF1 mouse assessed as inhibition of tumour growth administered qd for 5 days starting from day 1 of tumor cell inoculation and measured at day 14 to 18 post-tumor cell inoculation; assay type: functional, organism-based; conditions: dose 20-60 mg/kg, time 14-18 day
P388 [7] = assay: Antitumour activity against mouse P388 cells xenografted subcutaneously in BDF1 mouse assessed as inhibition of tumour growth at 20 mg/kg, ip administered qd for 5 days starting from day 1 of tumor cell inoculation and measured at day 18 post-tumor cell inoculation; assay type: functional; conditions: P388, 432 h, time 18 day, read-out: TGI
NCI-H460 = assay: Antiproliferative activity against human NCI-H460 cells assessed as inhibition of cell proliferation measured after 72 hrs by MTT assay; assay type: functional, cell-based; conditions: NCI-H460, 72 h
TERT-RPE1 = assay: Cytotoxicity against human TERT-RPE1 cells assessed as inhibition of cell proliferation measured after 72 hrs by MTT assay; assay type: cell-based; conditions: RPE-1, 72 h
[8] = Selectivity index, ratio of IC50 for human TERT-RPE1 cells to IC50 for human HCT-116 cells; assay type: toxicity; conditions: TERT-RPE1 cells and HCT-116 cells, read-out: Ratio IC50
K562 [9] = assay: Induction of apoptosis in human K562 cells assessed as late apoptotic cells at 1.6 uM measured after 24 hrs by Annexin V-APC/PI staining based flow cytometry assay (reference value: […]); assay type: functional
K562 [10] = assay: Induction of apoptosis in human K562 cells assessed as viable cells at 1.6 uM measured after 24 hrs by Annexin V-APC/PI staining based flow cytometry assay (reference value: 85.9%); assay type: functional; conditions: read-out: Activity
[11] = Antiproliferative activity against P-gp-positive/doxorubicin-resistant human K562/4 cells assessed as inhibition of cell proliferation measured after 72 hrs by MTT assay; assay type: functional; conditions: K562/4, 72 h
[12] = Drug uptake in mouse NIH3T3 cells assessed as compound localization in nucleus at 1 uM measured after 15 mins by laser scanning microscope; assay type: ADME, subcellular; conditions: nih3t3, 0.25 h
Calf thymus DNA [13] = assay: Binding affinity to calf thymus DNA assessed as binding constant by scatchard plot analysis; conditions: Bos taurus
K562 [14] = assay: Induction of apoptosis in human K562 cells assessed as early apoptotic cells at 1.6 uM measured after 48 hrs by Annexin V-APC/PI staining based flow cytometry assay (reference value: 3.4%); assay type: functional

## Cc1[nH]c2c(O)c3c(c(O)c2c1C(=O)N1CC[C@H](N)C1)C(=O)c1ccccc1C3=O
[1]
  Drug uptake: Active
HL-60
  IC50: 0.9 µM
HCT-116 [2]
  IC50: 0.8 µM
Calf thymus DNA [3]
  Kd: 0.7 µM
HCT-116 [4]
  IC50: 0.9 µM
[5]
  selectivity ratio: 18
P388 [6]
  Activity: Dose-dependent effect
P388 [7]
  inhibition in vivo at 20 mg/kg: 65%
NCI-H460
  IC50: 0.9 µM
TERT-RPE1
  IC50: 15.8 µM
[8]
  selectivity ratio: 18
K562 [9]
  Activity: 8.3%
K562 [10]
  viability at 1.6 µM: 69.4%
[11]
  IC50: 21.2 µM
[12]
  Drug uptake: Active
Calf thymus DNA [13]
  Kb: 14 10^5/M
K562 [14]
  Activity: 0.9%
